# Assay results: ChEMBL document CHEMBL1141472, “Design, synthesis, and biological evaluation of 8-biarylquinolines: a novel class of PDE4 inhibitors” (Bioorg Med Chem Lett, 2008)
# What was measured:
# Conditions in all cases: in vivo
# [1] = Oral bioavailability in rat; format: ADME, organism-based
# [2] = (§1) Half life in rat; format: ADME, organism-based
# [3] = Cmax in squirrel monkey at 10 mg/kg; format: ADME, organism-based, Saimiri sciureus; design: dose 10 mg/kg
# [4] = Cmax in squirrel monkey at 3 mg/kg; format: ADME, organism-based, Saimiri sciureus; design: dose 3 mg/kg
# Rattus norvegicus = species on record: Rattus norvegicus; assay: as §1; format: ADME, organism-based
SMILES,bioavailability [1],half-life [2],Cmax [3],Cmax [4],t1/2 (Rattus norvegicus)
CC(C)(c1cc(-c2cccc(-c3ccc[n+]([O-])c3)c2)c2ncccc2c1)S(C)(=O)=O,76%,1.2 h,–,–,–
Cc1ccc(-c2cccc(-c3cc(C(C)(C)S(C)(=O)=O)cc4cccnc34)c2)c[n+]1[O-],83%,1.2 h,–,–,–
CC(C)(c1cc(-c2cccc(-c3ccc(CO)[n+]([O-])c3)c2)c2ncccc2c1)S(C)(=O)=O,10%,1.7 h,–,–,–
CC(C)NC(=O)Nc1ccc(-c2cccc(-c3cc(C(C)(C)S(C)(=O)=O)cc4cccnc34)c2)c[n+]1[O-],11%,0.7 h,–,–,–
CC(=O)Nc1ccc(-c2cccc(-c3cc(C(C)(C)S(C)(=O)=O)cc4cccnc34)c2)c[n+]1[O-],47%,0.2 h,–,–,–
CC(C)(O)c1cc(-c2cccc(-c3cc(C(C)(C)S(C)(=O)=O)cc4cccnc34)c2)c[n+]([O-])c1,0%,< 1 h,–,–,–
CC(C)(c1cc(-c2cccc(-c3cc(C(=O)NC4CC4)c[n+]([O-])c3)c2)c2ncccc2c1)S(C)(=O)=O,0%,< 1 h,–,–,–
CC(C)(c1cc(-c2cccc(-c3ccc(C(=O)O)cc3)c2)c2ncccc2c1)S(C)(=O)=O,54%,2 h,–,–,–
CC(C)(c1cc(-c2cccc(-c3ccc(CCC(=O)O)cc3)c2)c2ncccc2c1)S(C)(=O)=O,24%,1 h,–,–,–
CC(C)(CC(=O)O)c1ccc(-c2cccc(-c3cc(C(C)(C)S(C)(=O)=O)cc4cccnc34)c2)cc1,100%,2 h,–,–,–
Cc1noc(/C(=C/c2cccc(-c3cc(C(C)(C)S(C)(=O)=O)cc4cccnc34)c2)c2ccc(S(C)(=O)=O)cc2)n1,–,–,3.8 µM,–,–
CC(C)(c1cc(-c2cccc(-c3ccc(C(=O)NC4CC4)[n+]([O-])c3)c2)c2ncccc2c1)S(C)(=O)=O,100%,6.5 h,–,–,–
CC(C)(c1cc(-c2cccc(-c3ccc(CC(=O)O)cc3)c2)c2ncccc2c1)S(C)(=O)=O,60%,0.3 h,–,–,–
CC(C)(O)c1ccc(-c2cccc(-c3cc(C(C)(C)S(C)(=O)=O)cc4cccnc34)c2)c[n+]1[O-],100%,1.5 h,–,41 µM,–
"CC(C)(c1cc(-c2cccc(-c3ccc(C4CC4C(=O)O)cc3)c2)c2ncccc2c1)S(C)(=O)=O (single isomer, unassigned)",100%,2 h,65 µM,–,–
"CC(C)(c1cc(-c2cccc(-c3ccc(C4CC4C(=O)O)cc3)c2)c2ncccc2c1)S(C)(=O)=O (single isomer, unassigned; enantiomer A)",–,–,–,–,2 h
